Laboratory results taken from patent US7534426B2, “Glutenase enzyme assays” (The Board of Trustees of the Leland Stanford Junior …, priority 2004, dated 2009).
Where two headings read alike, the source gives them in different places. Ends that are not written are not given here.

Columns and labels:
[1] = In vitro digestion with brush border membranes supplemented with PEP; type: in vitro ADME; conditions: rat, kidney or brush border membranes, BBM plus 100 μU/μL PEP, 37° C.
Protocol: In vitro Digestion of Gliadin Peptides. The in vitro digestion of each peptide was performed as follows: 75 μM (final concentration) of peptide was combined with 32 μL of 0.03 M HCl, pepsin (1:100 w pepsin/w peptide) and water to give a volume of 104 μL. The reaction was carried out for 30 minutes at 37° C. and was stopped by the addition of 40 μL of 1M sodium phosphate/sodium bisphosphate (pH 7.04). Chymotrypsin (1:100 w/w), trypsin (1:100.7 w/w), elastase (1:200 w/w), and carboxypeptidase A (1:100 w/w) were then added to give a final reaction volume of 168 μL. The reaction mixture was incubated at 37° C. for the indicated time and then stopped by heating at 90° C. for 5 minutes. Alternatively, the peptide ([…]) was combined with rat intestinal brush border enzymes, where the final concentration of brush border aminopeptidase N was 100 μU/μL. […] The reaction mixture was analyzed by reverse phase HPLC on a Vydac 218MS54 column (4.6 mm inner diameter×15 cm).
Given the stability of gliadin peptides to intestinal peptidases and initial results indicating PEP is active against α-gliadin epitopes, the efficacy of in vitro digestion with PEP was examined. To quantify the incremental effect of PEP, we incubated the gliadin peptides with purified brush border membranes, supplemented with 100 μU/μL of PEP for 1 or 4 hours at 37° C.

[2] = In vitro digestion of gliadin peptides with gastric and pancreatic enzymes (PTCtCE); type: in vitro ADME; conditions: pH 7.04
Protocol: (§1) In vitro Digestion of Gliadin Peptides. The in vitro digestion of each peptide was performed as follows: 75 μM (final concentration) of peptide was combined with 32 μL of 0.03 M HCl, pepsin (1:100 w pepsin/w peptide) and water to give a volume of 104 μL. The reaction was carried out for 30 minutes at 37° C. and was stopped by the addition of 40 μL of 1M sodium phosphate/sodium bisphosphate (pH 7.04). Chymotrypsin (1:100 w/w), trypsin (1:100.7 w/w), elastase (1:200 w/w), and carboxypeptidase A (1:100 w/w) were then added to give a final reaction volume of 168 μL. The reaction mixture was incubated at 37° C. for the indicated time and then stopped by heating at 90° C. for 5 minutes. Alternatively, the peptide ([…]) was combined with rat intestinal brush border enzymes, where the final concentration of brush border aminopeptidase N was 100 μU/μL. The rat intestinal brush border was prepared as described (Ahnen et al., 1982) and the activity was measured by assaying continuously at 30° C. in 0.1 M Tris HCl, pH 8.0, containing 1 mM Leu-pNA [extinction coefficient at 410 nm (ε410)=8,800 M^−1/cm^−1] in 1% dimethyl sulfoxide to improve solubility. In some reactions prolyl endopeptidase was also added at a final concentration of 100 μU/μL. The reaction mixture was analyzed by reverse phase HPLC on a Vydac 218MS54 column (4.6 mm inner diameter×15 cm).
(§2) Digestive resistance of gliadin peptides and effect of PEP. The gliadin peptides P2-P8 (Table 1) were incubated with pepsin, trypsin, chymotrypsin, carboxypeptidase A, and elastase (PTCtCE) and purified rat intestinal brush border membranes (BBM) as previously detailed (Shan et al., 2002) to assess their resistance to digestion. […] Peptides P2, P3, P5 contain one or more epitopes from α-gliadin, whereas P7 and P8 carry γ-gliadin epitopes. P4 is believed to stimulate the innate immune system, and P6 has macrophage stimulating activity.

[3] = In vitro digestion of gliadin peptides with brush border membranes; type: in vitro ADME, rat
Protocol: as §1, §2

[4] = test system: intact rat intestine co-perfused with prolyl endopeptidase (PEP); type: in vivo, Sprague-Dawley rats; conditions: co-perfused with 50 μM P5; ~190 μU/μL; ca. 1:5 weight ratio PEP:P5
Source text: In vivo Rat Intestinal Perfusion. Our procedure for in vivo intestinal perfusion of peptides in rats was modified from the Smithson and Gray procedure as follows: Sprague-Dawley rats, 250-350 g were anesthetized with isoflurane, the abdomen opened, the ligament of Treitz (duodenal-jejunal junction) identified and polyethylene catheters [2.5 mm outer diameter×1 mm inner diameter] were installed with the proximal infusion catheter placed 5 cm beyond the ligament of Treitz and the collection catheter positioned 20 cm distally. Animal core temperature was monitored to be at 37° C. by rectal thermometer. Peptides for intra-intestinal perfusion were 1 mM GLGG, 0.1 mM P3, 0.1 mM P4, 0.1 mM P5, 0.1 mM P8, 0.1 mM P9, and 0.1 mM P10. […]
In a separate experiment, pepsin, trypsin and chymotrypsin digested gliadin (Sigma, St. Louis, Mo.) was perfused at 2 mg/mL along with 0.05 mM P5 and 41.7 […] PEP (˜190 μU/μL) to determine the effect of smaller, more accessible peptide fragments on P5 digestion. The perfusion effluent was collected, immediately frozen and subsequently analyzed by reverse phase HPLC on a Vydac 218MS54 column (4.6 mm inner diameter×15 cm). The rate of substrate disappearance for the peptides was calculated as previously detailed (Smithson and Gray, 1977). […]

## FLQPQQPFPQQPQQPYPQQPQQPFPQ [Peptide P8]
[1]; 1 hr, read-out: percentage of parent material digested, BBM + PEP 1 hr
  metabolised at 1 h, 75 µM: > 99%
[1]; 4 hr, read-out: percentage of parent material digested, BBM + PEP 4 hr
  metabolised at 4 h, 75 µM: > 99%
[2]; 75 μM peptide, 37° C., 4 hr, NR = no reaction, read-out: percentage of parent material digested, PTCtCE 4 hr
  metabolised at 4 h, 75 µM: 13%
[3]; rat, kidney or brush border membranes, 75 μM peptide, aminopeptidase N 100 μU/μL, 4 hr, read-out: percentage of parent material digested, BBM 4 hr
  metabolised at 4 h, 75 µM: 19%
[3]; rat, kidney or brush border membranes, 4 hours, read-out: starting material remaining after BBM exposure
  remaining at 4 h, 75 µM: ~70%

## LGQQQPFPPQQPYPQPQPF [Peptide P4, LGQQQPFPPQQPYPQPQPF]
[3]
  metabolised at 1 h, 75 µM: 77%
  metabolised at 4 h, 75 µM: 98%

## LQLQPFPQPQLPYPQPQLPYPQPQLPYPQPQPF [Peptide P5]
[2]
  metabolised at 4 h, 75 µM: 10%
[3]
  metabolised at 1 h, 75 µM: 20%
  metabolised at 4 h, 75 µM: 28%
[3]; rat, kidney or brush border membranes
  remaining at 4 h, 75 µM: ~70%

## QLQPFPQPQLPY [Peptide P2, QLQPFPQPQLPY]
[2]
  metabolised at 4 h, 75 µM: 1%
[3]
  metabolised at 1 h, 75 µM: 71%
  metabolised at 4 h, 75 µM: 94%

## VSFQQPQQQYPSSQ [Peptide P6, VSFQQPQQQYPSSQ]
[2]
  metabolised at 4 h, 75 µM: 48%
[3]
  metabolised at 1 h, 75 µM: 97%
  metabolised at 4 h, 75 µM: 99%

B1: PEP: Flavobacterium meningosepticum prolyl endopeptidase, purchased or prepared from recombinant E. coli (protein, UniProt P27028 21-705, looked up)
Prolyl endopeptidase: QNSNVLKYPETKKVSHTDTYFGTQVSDPYRWLEDDRAEDTKAWVQQEVKFTQDYLAQIPFRDQLKKQLMDIWNYEKISAPFKKGKYTYFSKNDGLQAQSVLYRKDAAGKTEVFLDPNKFSEKGTTSLASVSFNKKGTLVAYSISEGGSDWNKIIILDAETKKQLDETLLDVKFSGISWLGDEGFFYSSYDKPKEGSVLSGMTDKHKVYFHKLGTKQSQDELIIGGDKFPRRYIGAYVTDDQRYLVVSAANATNGNELYIKDLKNKTDFIPIITGFDSNVNVADTDGDTLYLFTDKDAPNKRLVKTTIQNPKAETWKDVIAETSEPLEINTGGGYFFATYMKDAIDQVKQYDKNGKLVRAIKLPGSGNASGFGGEKTEKDLYYSFTNYITPPTIFKYNVTTGNSEVYQKPKVKFNPENYVSEQVFYTSSDGTKIPMMISYKKGLKKDGKNPTILYSYGGFNISLQPAFSVVNAIWMENGGIYAVPNIRGGGEYGKKWHDAGTKMQKKNVFNDFIAAGEYLQKNGYTSKEYMALSGRSNGGLLVGATMTMRPDLAKVAFPGVGVLDMLRYNKFTAGAGWAYDYGTAEDSKEMFEYLKSYSPVHNVKAGTCYPSTMVITSDHDDRVVPAHSFKFGSELQAKQSCKNPILIRIETNAGHGAGRSTEQVVAENADLLSFALYEMGIKSLK
[4]
  amount of PEP required to eliminate P5 under the perfusion conditions: 41.7 µg/mL
